Laboratory results reported in patent publication US12692283B2, “Lignan derivative, preparation method therefor and use thereof” (SHANGHAI INSTITUTE OF MATERIA MEDICA, CHINESE ACADEMY OF …, priority 2021, dated 2026).

Key:
Type in all cases: in vivo, mouse
[1] = test system: mice with oxazolone-induced enteritis; experiment: Efficacy in mice with oxazolone-induced inflammatory bowel disease; details: intragastric 1 mg/kg/day
Procedure: Experimental animals: 30 male C57 mice, 8 weeks old.
Modeling and administration: 3% Oxazolone was dissolved in the solvent (acetone:olive oil, 1:4). After the mouse was anesthetized, the hair on the shoulder of the mouse was removed, and then 150 μL of Oxazolone with a mass fraction of 3% was added dropwise. On the 8th day after treatment, 1% Oxazolone was dissolved in a solvent (ethanol:sterilized water, 1:1). After the mice were anesthetized, 150 μL of 1% Oxazolone was administered rectally to create a model. The modeling mice were divided into two groups, with 10 mice in each group. One group was given compound A5 by gavage at 1 mg/kg/day, one group was given physiological saline, and the other group of 10 mice without modeling was used as a control group. Starting from the day of modeling, the weight of the mice was recorded every day. The feces of the mice were collected on the third day after rectal administration to observe the softness of the feces and whether there was bleeding. […]
Mouse enteritis disease activity index score: Mice were scored based on the degree of weight loss of the mouse (0: normal; 1:1-5%; 2:6-10%; 3:11-18%; 4: >18%), the degree of the softness of the feces (0: normal; 2: soft; 4: diarrhea), and the degree of feces bleeding (0: normal; 2: occult blood; 4: bloody stool), then each score was added and divide by three. […]

[2] = test system: mice with liver fibrosis induced by carbon tetrachloride; experiment: Efficacy in mice with carbon tetrachloride-induced liver fibrosis; details: intragastric 1 mg/kg/day and 3 mg/kg/day for 3 weeks
Procedure: Experimental animals: 40 male C57 mice, 8 weeks old.
Modeling and administration: 400 μL of carbon tetrachloride (CCl4) was added to 3.6 mL of olive oil, mixed well, and then injected intraperitoneally at 0.1 mL/20 g, twice a week for six weeks. Six weeks later, 30 mice were divided into 3 groups, with 10 mice in each group. They were given physiological saline by gavage, 1 mg/kg A5 and 3 mg/kg A5. In addition, 10 mice that were not induced were given physiological saline as a control group. After 3 weeks of continuous administration, the mice were sacrificed, and the livers were removed, weighed, fixed and embedded, and the remaining liver tissue was cryopreserved for detection of hydroxyproline content.
Masson staining of mouse liver tissue: The mouse liver tissue was paraffin-embedded according to conventional methods, and sections were subjected to Masson staining. The specific procedures were as follows. […]
Detection of hydroxyproline content in mouse liver tissue: A hydroxyproline detection kit (Nanjing Jiancheng Bioengineering Institute) was used. […] Absorbance values of the supernatant at a wavelength of 550 nm were determined using a microplate reader. The hydroxyproline content per 100 mg of liver tissue was then calculated.

[3] = Oral pharmacokinetics of phosphate prodrug A5 in ICR mice (plasma and tissues); details: oral 30 mg/kg
Procedure: Compound A5 (30 mg/kg) was administered orally to overnight fasted ICR mice (male, n=3/time point). The mice were fed 2 hours after administration. Samples were collected before administration and 1 h, 2 h, 4 h, and 8 h after administration. Blood was collected in centrifuge tubes pretreated with heparin sodium and bis(4-nitrophenyl)phosphate (BNPP). After centrifugation at 11,000 rpm for 5 min at 4° C., plasma was obtained and stored at −80° C. Next, 100 […] of plasma sample, precipitated, vortexed for 1 min, and centrifuged (11,000 rpm) for 5 min. A mixture of 20 […] of methanol/acetonitrile (1:1, v/v) was taken to analyze the concentrations of compound A5 and compound A4-1a by LC-MS/MS. Heart (blood emptying), liver, and lung tissues were stored at −80° C. until analysis. After removal of contents, the duodenum and colon were quickly washed with cold saline containing BNPP and stored at −80° C. until analysis. […] 20 μL of the supernatant was redissolved in 20 μL of ACN/H2O (1:1, v/v), and the concentrations of compound A5 and compound A4-1a were analyzed by LC-MS/MS.

## COc1ccc(C[C@H]2COC(=O)[C@]2(C)Cc2ccc(OP(=O)(O)O)c(OC)c2)cc1OC [Compound A5, 4-(((3R,4R)-4-(3,4-dimethoxybenzyl)-3-methyl-2-oxotetrahydrofuran-3-yl)methyl)-2-methoxyphenyl dihydrogen phosphate]
[1]
  colon pathology score: significantly reduce the colon pathology score
  disease activity index of enteritis: significantly reduce the disease activity index
[2]
  hydroxyproline (HYP) content in liver tissue: significantly reduce the increase in hydroxyproline content
  positive rate of Masson staining in liver (degree of liver fibrosis): significantly reduce the degree of liver fibrosis
[3]
  drug concentration in plasma and various tissues: good drug concentration in plasma and various tissues
